From ChEMBL document CHEMBL5143564, “PES derivative PESA is a potent tool to globally profile cellular targets of PES” (Bioorg Med Chem Lett, 2022)
The source made the active and inactive calls. The calls are words filed in the database; no cut-off is given here.

Key:
[1] = biological target: T1, Peroxiredoxin-1 (Homo sapiens) (UniProt Q06830); assay: Binding affinity to PRDX1 in human DOHH-2 cells measured after 6 hrs by pull-down assay; assay type: cell-based; settings: DDE = dose-dependent effect
T1 sequence (whole entry): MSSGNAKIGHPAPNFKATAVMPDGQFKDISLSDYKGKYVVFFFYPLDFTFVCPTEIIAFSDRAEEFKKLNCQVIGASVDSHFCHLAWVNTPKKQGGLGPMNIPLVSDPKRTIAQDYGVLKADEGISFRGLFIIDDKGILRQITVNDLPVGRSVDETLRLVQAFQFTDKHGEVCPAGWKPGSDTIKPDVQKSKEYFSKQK

[2] = test system: DOHH-2; assay: Up regulation of HSP90alpha expression in human DOHH-2 cells at 8 uM measured after 4 to 24 hrs by Western blot analysis; assay type: functional, cell-based; settings: time 4-24 hrs
[3] = test system: DOHH-2; assay: Induction of apoptosis in human DOHH-2 cells assessed as increase in cleaved PARP expression at 8 uM measured after 4 to 24 hrs by Western blot analysis; assay type: functional, cell-based; settings: time 4-24 hrs
[4] = biological target: T2, Protein disulfide-isomerase A4 (Homo sapiens) (UniProt P13667); assay: Binding affinity to PDIA4 in human DOHH-2 cells measured after 6 hrs by pull-down assay; assay type: cell-based; settings: DDE = dose-dependent effect
T2 sequence (whole entry): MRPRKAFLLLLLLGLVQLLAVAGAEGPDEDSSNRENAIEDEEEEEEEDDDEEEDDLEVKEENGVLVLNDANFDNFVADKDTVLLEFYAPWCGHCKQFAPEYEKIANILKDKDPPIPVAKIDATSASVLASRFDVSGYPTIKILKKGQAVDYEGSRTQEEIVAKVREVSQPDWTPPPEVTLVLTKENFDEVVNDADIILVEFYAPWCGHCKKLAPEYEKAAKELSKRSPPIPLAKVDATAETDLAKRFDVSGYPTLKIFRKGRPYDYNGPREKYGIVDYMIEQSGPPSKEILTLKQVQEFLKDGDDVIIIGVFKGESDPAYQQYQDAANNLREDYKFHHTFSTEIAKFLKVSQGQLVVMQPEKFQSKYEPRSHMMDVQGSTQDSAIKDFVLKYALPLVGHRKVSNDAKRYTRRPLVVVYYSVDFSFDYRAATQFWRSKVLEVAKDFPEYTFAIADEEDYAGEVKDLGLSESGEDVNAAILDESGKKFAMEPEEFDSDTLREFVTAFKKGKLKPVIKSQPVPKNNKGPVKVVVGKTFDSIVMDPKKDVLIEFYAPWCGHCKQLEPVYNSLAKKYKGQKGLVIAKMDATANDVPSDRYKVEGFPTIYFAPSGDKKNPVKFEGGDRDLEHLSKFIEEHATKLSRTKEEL

[5] = biological target: T3, Protein disulfide-isomerase A6 (Homo sapiens) (UniProt Q15084); assay: Binding affinity to PDIA6 in human DOHH-2 cells measured after 6 hrs by pull-down assay; assay type: cell-based; settings: DDE = dose-dependent effect
T3 sequence (whole entry): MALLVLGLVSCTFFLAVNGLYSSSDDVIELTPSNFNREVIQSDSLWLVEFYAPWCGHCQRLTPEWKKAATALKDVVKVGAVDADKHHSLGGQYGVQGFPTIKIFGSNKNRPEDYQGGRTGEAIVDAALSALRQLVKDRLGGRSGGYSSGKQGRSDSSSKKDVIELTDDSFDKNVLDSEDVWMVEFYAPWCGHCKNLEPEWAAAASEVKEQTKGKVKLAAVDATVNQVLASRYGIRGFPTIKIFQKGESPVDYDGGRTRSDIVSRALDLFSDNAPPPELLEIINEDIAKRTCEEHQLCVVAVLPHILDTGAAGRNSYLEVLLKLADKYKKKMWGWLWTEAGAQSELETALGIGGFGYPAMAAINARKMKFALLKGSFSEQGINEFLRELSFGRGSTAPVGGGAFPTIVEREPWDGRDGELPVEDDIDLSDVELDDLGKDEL

[6] = test system: DOHH-2; assay: Up regulation of HSP90alpha expression in human DOHH-2 cells at 0.5 to 8 uM measured after 24 hrs by Western blot analysis; assay type: functional, cell-based; settings: dose 0.5-8 µM
[7] = biological target: T4, Protein disulfide-isomerase A3 (Homo sapiens) (UniProt P30101); assay: Binding affinity to PDIA3 in human DOHH-2 cells measured after 6 hrs by pull-down assay; assay type: cell-based; settings: DDE = dose-dependent effect
T4 sequence (whole entry): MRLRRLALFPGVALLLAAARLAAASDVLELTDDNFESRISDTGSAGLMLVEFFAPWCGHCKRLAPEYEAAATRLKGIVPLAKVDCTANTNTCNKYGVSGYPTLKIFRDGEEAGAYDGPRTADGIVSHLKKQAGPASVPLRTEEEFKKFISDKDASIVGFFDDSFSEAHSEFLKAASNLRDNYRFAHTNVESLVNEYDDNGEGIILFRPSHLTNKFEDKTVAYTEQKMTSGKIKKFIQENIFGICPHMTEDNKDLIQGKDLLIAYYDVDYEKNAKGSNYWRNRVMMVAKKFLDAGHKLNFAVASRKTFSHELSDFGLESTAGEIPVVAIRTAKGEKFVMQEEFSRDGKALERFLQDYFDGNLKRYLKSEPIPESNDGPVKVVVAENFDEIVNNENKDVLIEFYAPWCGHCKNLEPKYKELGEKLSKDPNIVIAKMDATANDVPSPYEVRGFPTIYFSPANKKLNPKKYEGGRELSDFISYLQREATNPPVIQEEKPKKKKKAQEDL

[8] = biological target: T5, Glutathione S-transferase omega-1 (Homo sapiens) (UniProt P78417); assay: Binding affinity to GSTO1 in human DOHH-2 cells by MS analysis; assay type: cell-based
T5 sequence (whole entry): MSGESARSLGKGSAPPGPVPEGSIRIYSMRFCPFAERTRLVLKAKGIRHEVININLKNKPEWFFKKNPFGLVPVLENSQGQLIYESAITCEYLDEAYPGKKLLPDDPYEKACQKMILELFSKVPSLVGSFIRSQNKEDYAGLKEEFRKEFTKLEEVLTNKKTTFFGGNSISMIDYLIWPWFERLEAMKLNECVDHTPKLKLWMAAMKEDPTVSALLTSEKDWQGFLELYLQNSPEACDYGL

[9] = biological target: Coronin-1A (Homo sapiens) (UniProt P31146); assay: Binding affinity to coronin-1A in human DOHH-2 cells by MS analysis; assay type: cell-based
[10] = species on record: Homo sapiens; assay: Binding affinity to human HSP70 SBDalpha domain (537 to 610 residues) C574S mutant assessed as Cys603 adduct formation by size exclusion chromatography
[11] = biological target: Tubulin beta (Homo sapiens) (UniProt P68371+Q9H4B7+Q13509+P04350+Q3ZCM7+P07437+Q13885+Q9BVA1+Q9BUF5+A6NNZ2); assay: Binding affinity to beta-tubulin in human MDA-MB-453 cells measured after 6 hrs by pull-down assay; assay type: cell-based; settings: dose <= 20.0 µM, DDE = dose-dependent effect
[12] = test system: DOHH-2; assay: Cytotoxicity against human DOHH-2 cells measured after 72 hrs; assay type: functional, cell-based
[13] = species on record: Homo sapiens; assay: Binding affinity to ADP-bound full-length human HSP70 assessed as Cys603 adduct formation at SBDalpha domain by LC-MS/MS analysis
[14] = biological target: T4, Protein disulfide-isomerase A3 (Homo sapiens); assay: Binding affinity to PDIA3 in human DOHH-2 cells by MS analysis; assay type: cell-based
[15] = biological target: T3, Protein disulfide-isomerase A6 (Homo sapiens); assay: Binding affinity to PDIA6 in human DOHH-2 cells by MS analysis; assay type: cell-based

Chain of Coronin-1A (Homo sapiens) (P31146 whole entry, the tested form may be a part): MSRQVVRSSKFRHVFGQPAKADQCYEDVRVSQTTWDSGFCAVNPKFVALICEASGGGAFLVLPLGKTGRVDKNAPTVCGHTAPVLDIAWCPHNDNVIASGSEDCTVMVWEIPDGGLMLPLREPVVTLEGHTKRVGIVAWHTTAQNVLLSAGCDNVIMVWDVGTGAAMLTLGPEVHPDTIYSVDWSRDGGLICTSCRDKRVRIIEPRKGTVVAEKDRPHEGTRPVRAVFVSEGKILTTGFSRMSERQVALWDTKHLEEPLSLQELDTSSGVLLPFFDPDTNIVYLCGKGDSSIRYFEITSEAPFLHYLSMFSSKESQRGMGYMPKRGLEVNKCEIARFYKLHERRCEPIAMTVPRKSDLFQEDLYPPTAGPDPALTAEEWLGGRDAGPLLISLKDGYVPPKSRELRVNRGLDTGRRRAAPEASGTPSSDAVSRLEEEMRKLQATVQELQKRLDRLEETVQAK

Activity [1]: Dde
Activity [4]: Dde
Activity [5]: Dde
Activity [7]: Dde
Activity [8]: Active
Activity [9]: Active
Activity [10]: Active
Activity [11]: Dde
Activity [13]: Active
Activity [14]: Active
Activity [15]: Active
Structure (SMILES): C#Cc1cccc(C#CS(N)(=O)=O)c1
Activity [2]: Active
Activity [3]: Active
Activity [6]: Active
Activity [12]: Active
